In brackets after ≈: the same amount, converted by molar mass.
Key:
[1] = AUC in rat at 2 mg/kg, po; type: ADME, organism-based; set-up: dose 2 mg/kg, route oral; settings: plasma
[2] = target: Cyclin-dependent kinase 2 (Homo sapiens, UniProt P24941); assay: Inhibition of CDK2/Cyclin E
[3] = Aqueous solubility at pH 7.4; settings: buffer
[4] = Lipophilicity Log D at pH 7.4; settings: buffer
MCF7 = assay: cells; settings: Homo sapiens, MCF7, 48 h
Description: Antiproliferative activity against human MCF7 cells after 48 hrs

[5] = target: Voltage-gated inwardly rectifying potassium channel KCNH2 (Homo sapiens, UniProt Q12809)
[6] = Protein binding in rat plasma assessed as unbound fraction; type: ADME, cell-free
SW-620 [7] = assay: Antitumor activity against human SW620 cells xenografted nude mouse assessed as tumor growth inhibition at 7.5 mg/kg, po once daily for 28 days; settings: SW-620, po, 672 h, read-out: INH
[8] = Plasma clearance in dog; type: ADME, organism-based, Canis lupus familiaris
[9] = Oral bioavailability in dog; type: ADME, organism-based, Canis lupus familiaris; settings: in vivo
[10] = Volume of distribution at steady state in rat; type: ADME, organism-based; settings: in vivo, read-out: Vdss
[11] = Plasma clearance in rat; type: ADME, organism-based
[12] = Oral bioavailability in rat; type: ADME, organism-based; settings: in vivo
[13] = Volume of distribution at steady state in dog; type: ADME, organism-based, Canis lupus familiaris; settings: in vivo, read-out: Vdss
SW-620 [14] = assay: animal or person; settings: Mus musculus, SW-620, po, 672 h, read-out: INH
Description: Antitumor activity against human SW620 cells xenografted nude mouse assessed as tumor growth inhibition at 12.5 mg/kg, po once daily for 28 days

Chain of Voltage-gated inwardly rectifying potassium channel KCNH2 (Q12809 whole entry): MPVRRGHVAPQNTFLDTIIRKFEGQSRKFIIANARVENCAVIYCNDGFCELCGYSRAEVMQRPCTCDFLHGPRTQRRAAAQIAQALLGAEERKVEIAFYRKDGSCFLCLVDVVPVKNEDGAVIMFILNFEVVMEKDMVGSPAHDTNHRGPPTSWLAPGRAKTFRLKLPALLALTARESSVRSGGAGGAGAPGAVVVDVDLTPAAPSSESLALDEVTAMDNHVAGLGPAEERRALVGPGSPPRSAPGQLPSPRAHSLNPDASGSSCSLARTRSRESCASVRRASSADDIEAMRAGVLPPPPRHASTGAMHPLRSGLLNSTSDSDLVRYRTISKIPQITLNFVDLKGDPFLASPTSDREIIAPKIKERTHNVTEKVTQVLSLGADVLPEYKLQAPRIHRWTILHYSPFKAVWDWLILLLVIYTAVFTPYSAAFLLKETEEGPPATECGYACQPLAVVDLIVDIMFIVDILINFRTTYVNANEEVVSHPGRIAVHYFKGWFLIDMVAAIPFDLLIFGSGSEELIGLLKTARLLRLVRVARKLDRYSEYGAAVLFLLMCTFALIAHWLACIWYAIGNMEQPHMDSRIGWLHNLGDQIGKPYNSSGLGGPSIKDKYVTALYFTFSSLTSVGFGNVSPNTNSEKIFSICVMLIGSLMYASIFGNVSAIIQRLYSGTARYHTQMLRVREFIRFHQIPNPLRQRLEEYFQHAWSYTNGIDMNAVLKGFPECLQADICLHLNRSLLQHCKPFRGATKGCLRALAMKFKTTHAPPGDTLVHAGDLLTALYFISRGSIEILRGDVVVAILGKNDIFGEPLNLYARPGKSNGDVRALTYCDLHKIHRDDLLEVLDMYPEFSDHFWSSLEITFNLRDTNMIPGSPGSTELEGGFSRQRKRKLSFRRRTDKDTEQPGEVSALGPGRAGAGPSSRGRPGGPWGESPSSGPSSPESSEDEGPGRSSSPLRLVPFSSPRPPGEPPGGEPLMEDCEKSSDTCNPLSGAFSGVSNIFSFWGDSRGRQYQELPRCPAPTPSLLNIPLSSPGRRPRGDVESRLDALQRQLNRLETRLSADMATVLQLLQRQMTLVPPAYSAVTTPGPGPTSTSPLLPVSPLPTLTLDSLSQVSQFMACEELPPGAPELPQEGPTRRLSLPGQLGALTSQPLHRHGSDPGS

Structure (SMILES)	AUC [1] [µM·h]	IC50 [2] [nM]	solubility [3] [µM]	logD [4]	IC50 (MCF7) [nM]	also measured
Cc1ncc(-c2ccnc(Nc3ccc(N4CCOCC4)cc3)n2)n1C(C)C	0.16	9	56 (≈ 21.2 µg/mL)	2.9	290	–
Cc1ncc(-c2ccnc(Nc3ccc(Cl)cc3)n2)n1C(C)C	–	< 3	–	–	72	–
Cc1ncc(-c2ccnc(Nc3ccc(N4CCN(S(C)(=O)=O)CC4)cc3)n2)n1C(C)C	0.08	< 3	9 (≈ 4.1 µg/mL)	2.6	72	IC50 [5]: 5500 nM; fraction unbound [6]: 0.08
COCCNS(=O)(=O)c1ccc(Nc2nccc(-c3cnc(C)n3C(C)C)n2)cc1	–	–	–	–	45	–
Cc1ncc(-c2nc(Nc3ccc(N4CCC[C@H]4C(=O)N(C)C)cc3)ncc2F)n1C(C)C	–	46	–	–	–	–
Cc1ncc(-c2ccnc(Nc3ccc(N4CCN(C(=O)CO)CC4)cc3)n2)n1C(C)C	0.4	–	–	–	–	inhibition in vivo at 7.5 mg/kg (SW-620 [7]): 80%; clearance [8]: 19 mL/min/kg; bioavailability [9]: 79%; Vd [10]: 2.5 L/kg; clearance [11]: 15 mL/min/kg; bioavailability [12]: 59%; Vd [13]: 3.4 L/kg; fraction unbound [6]: 0.22
Cc1ncc(-c2ccnc(Nc3ccc(N4CCN(S(=O)(=O)CCN(C)C)CC4)cc3)n2)n1C(C)C	–	3	–	2.5	< 39	IC50 [5]: 18000 nM
CCN(CC)CC(=O)N1CCN(c2ccc(Nc3nccc(-c4cnc(C)n4C(C)C)n3)cc2)CC1	–	–	> 3700	–	< 22	–
CC(=O)N1CCN(c2ccc(Nc3nccc(-c4cnc(C)n4C(C)C)n3)cc2)CC1	–	< 3	–	–	145	–
COc1ccc(Nc2nccc(-c3cnc(C)n3C(C)C)n2)cc1	–	8	–	–	72	–
Cc1ncc(-c2nc(Nc3ccc(N4CCN(C(=O)CO)CC4)cc3)ncc2F)n1C(C)C	0.17	6	160 (≈ 72.6 µg/mL)	2.2	75	clearance [8]: 24 mL/min/kg; bioavailability [9]: 31%; inhibition in vivo at 12.5 mg/kg (SW-620 [14]): 89%; Vd [10]: 1 L/kg; clearance [11]: 16 mL/min/kg; bioavailability [12]: 67%; Vd [13]: 3.5 L/kg
Cc1ncc(-c2ccnc(Nc3ccc(N4CCN(C(=O)[C@H](C)O)CC4)cc3)n2)n1C(C)C	0.16	17	–	–	220	IC50 [5]: > 24000 nM
Cc1ncc(-c2ccnc(Nc3ccc(N4CCN(C(=O)CN(C)C)CC4)cc3)n2)n1C(C)C	–	16	> 3400	3.3	< 27	IC50 [5]: > 32000 nM; fraction unbound [6]: 0.4
Cc1ncc(-c2ccnc(Nc3ccc(C#N)cc3)n2)n1C(C)C	–	< 3	–	–	70	–
Cc1ncc(-c2ccnc(Nc3ccc(F)cc3)n2)n1C(C)C	–	3	–	–	100	–
CC(=O)N[C@@H]1CCN(c2ccc(Nc3ncc(F)c(-c4cnc(C)n4C(C)C)n3)cc2)C1	–	> 0.3	–	–	140	–
COCCS(=O)(=O)N1CCN(c2ccc(Nc3nccc(-c4cnc(C)n4C(C)C)n3)cc2)CC1	–	< 3	–	–	93	–
Cc1ncc(-c2ccnc(Nc3ccc(N(C)C)cc3)n2)n1C(C)C	–	24	–	–	68	–
CC(=O)NC1CN(c2ccc(Nc3ncc(F)c(-c4cnc(C)n4C(C)C)n3)cc2)C1	–	0.5	120 (≈ 50.8 µg/mL)	2.8	–	fraction unbound [6]: 0.05
Cc1ncc(-c2nc(Nc3ccc(N4CCOCC4)cc3)ncc2F)n1C(C)C	0.19	8	120 (≈ 47.6 µg/mL)	3	110	IC50 [5]: 11000 nM; clearance [8]: 140 mL/min/kg; bioavailability [9]: 3%; Vd [10]: 1.3 L/kg; clearance [11]: 26 mL/min/kg; bioavailability [12]: 34%; Vd [13]: 2.9 L/kg

Reference: ChEMBL document CHEMBL1155842, “Imidazole piperazines: SAR and development of a potent class of cyclin-dependent kinase inhibitors with a novel binding mode” (Bioorg Med Chem Lett, 2008)
